Test results as given in patent US12150940B2, “WASp-protecting small molecules, compositions, methods and uses thereof in the treatment of innate and acquired immune-related disorders or conditions” (BAR ILAN UNIVERSITY, priority 2016, dated 2024).

Key:
[1] = test system: WAS−/−/WASp R86C Jurkat T-cells; experiment: Lymphocyte migration on ICAM-1/SDF-1α, WAS−/−/WASp R86C cells; type: cell-based, human
Method: WASp knockout Jurkat T-cell lines that express only exogenous YFP-WASp R86C (WAS^−/−/WASp R86C) or Y107C (WAS^−/−/WASp Y107C) were pretreated with SMC #34 in comparison to cells treated with the control. Cells that completely lack WASp expression (WAS^−/−) were also treated with the control. Cellular migration was tracked over a 20-min period on ICAM-1/SDF-1α-coated cover glasses, as described in Experimental procedures.
Approximately 1×10^5 lymphocytes were seeded over chambered coverslips (LabTek) pre-coated with 6 μg/ml ICAM-1 and 2 μg/ml SDF-1α. Cells were incubated at 37° C., 5% CO2 and DIC images were acquired with the Zeiss Observer Z1 inverted microscope every 5 s for 20 min under a 20× objective lens using Zen software. The random movement (Displacement and velocity) of the cells was automatically tracked and analyzed using TrackMate plugin of ImageJ software. An individual trace was assigned to each of the analyzed cells.

[2] = test system: WAS−/−/WASp R86C Jurkat T-cells; experiment: Lymphocyte activation (CD69, flow cytometry) in WAS−/−/WASp R86C cells; type: cell-based, human; conditions: cells exclusively expressing YFP-WASp R86C, PMA and Ionomycin, vs control
Method: 1×10^6 WASp knockout Jurkat T-cell line that expresses only exogenous YFP-WASp harboring the common human WAS and XLT mutation, R86C (WAS−/−/WASp R86C) was pretreated with either negative control or SMC #34. Cells that completely lack WASp expression (WAS^−/−) were also treated with the control. The cells were then stimulated with PMA and Ionomycin. After incubation, the cells were stained with PE-Cy5™-conjugated mouse anti-human CD69 and lymphocyte activation was measured by flow cytometry as described in Experimental procedures. Histogram of negative control versus SMC #34 is presented.
PBMCs or Jurkat cells (about 3×10^5 cells) were incubated for 4 h, at 37° C. with 50 ng/ml PMA and 250 ng/ml lonomycin, or 40 ng/ml PMA and 6 μM Ionomycin, respectively, or left untreated. After incubation, the cells were collected and stained with 1 μg/ml anti-active human LFA-1 antibody (purified from KIM127 hybridoma sup, ATCC Cat #: CRL-2838, Sigma) for 30 min in 37° C., followed by staining with Alexa488-Fluor goat anti-mouse IgG1 secondary antibody (Molecular Probes, Cat #: A-21121), 30 min on ice. Cells were then co-stained with PE-Cy5™-conjugated mouse anti-human CD69 (BD Pharmingen, Cat #: 555532) to measure lymphocyte activation.

## CC1CCCC(C)N1C(=O)CSc1nnc(COc2cccc3cccnc23)o1 (stereo not drawn) [SMC #34, 1-(2,6-dimethylpiperidin-1-yl)-2-[[5-(quinolin-8-yloxymethyl)-1,3,4-oxadiazol-2-yl]sulfanyl]ethanone]
[1]; WAS−/−/WASp R86C cells, vs control
  migration: significantly increased
[1]; WAS−/−/WASp R86C, 20 min, mean ± SE
  mean cell displacement: 53.65±4.88
[2]
  lymphocyte activation (CD69): upregulation of lymphocyte activation
